Assay results published in PubChem BioAssay (NCI).
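Here, GI50 denotes the concentration required for 50% inhibition of growth. TGI marks complete inhibition of growth.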

Legend:
Assay in all cases: DTP human tumour cell line panel, 384-well format
[1] = test system: 786-0 renal
[2] = test system: A498 renal
[3] = test system: A549 NSCLC
[4] = test system: ACHN renal
[5] = test system: BT-549 breast
[6] = test system: CAKI-1 renal
[7] = test system: CCRF-CEM leukemia
[8] = test system: COLO 205 colon
[9] = test system: DU-145 prostate
[10] = test system: HCC-2998 colon
[11] = test system: HCT-116 colon
[12] = test system: HCT-15 colon
[13] = test system: HL-60(TB) leukemia
[14] = test system: HOP-62 NSCLC
[15] = test system: HOP-92 NSCLC
[16] = test system: HT29 colon
[17] = test system: IGROV1 ovarian
[18] = test system: K-562 leukemia
[19] = test system: KM12 colon
[20] = test system: LOX IMVI melanoma
[21] = test system: M14 melanoma
[22] = test system: MALME-3M melanoma
[23] = test system: MCF7 breast
[24] = test system: MDA-MB-231 breast
[25] = test system: MDA-MB-435 melanoma
[26] = test system: MDA-MB-468 breast
[27] = test system: MOLT-4 leukemia
[28] = test system: NCI-H226 lung
[29] = test system: NCI-H23 lung
[30] = test system: NCI-H322M lung
[31] = test system: NCI-H460 NSCLC
[32] = test system: NCI-H522 lung
[33] = test system: NCI/ADR-RES ovarian
[34] = test system: OVCAR-3 ovarian
[35] = test system: OVCAR-4 ovarian
[36] = test system: OVCAR-5 ovarian
[37] = test system: OVCAR-8 ovarian
[38] = test system: PC-3 prostate
[39] = test system: RPMI-8226 leukemia
[40] = test system: RXF 393 renal
[41] = test system: SF-268 CNS
[42] = test system: SF-295 CNS
[43] = test system: SF-539 CNS
[44] = test system: SK-MEL-2 melanoma
[45] = test system: SK-MEL-28 melanoma
[46] = test system: SK-MEL-5 melanoma
[47] = test system: SK-OV-3 ovarian
[48] = test system: SN12C renal
[49] = test system: SNB-19 CNS
[50] = test system: SR leukemia
[51] = test system: SW-620 colon
[52] = test system: T-47D breast
[53] = test system: TK-10 renal
[54] = test system: U251 glioblastoma
[55] = test system: UACC-257 melanoma
[56] = test system: UACC-62 melanoma
[57] = test system: UO-31 renal

NCCCC[C@@H]1NC(=O)[C@H](CC(=O)O)NC(=O)CNC(=O)[C@H](CCCN=C(N)N)NC(=O)[C@@H](N)CSSC[C@@H](C(=O)O)NC(=O)[C@H](CC(=O)O)NC(=O)[C@@H]2CCCN2C(=O)CNC1=O gave a GI50 [1] greater than 100 µM, a TGI [1] greater than 100 µM and a GI50 [2] greater than 100 µM. The TGI [2] was greater than 100 µM, the GI50 [3] was greater than 100 µM and the TGI [3] was greater than 100 µM. The GI50 [4] was greater than 100 µM, the TGI [4] was greater than 100 µM and the GI50 [5] was greater than 100 µM. The TGI [5] was greater than 100 µM, the GI50 [6] was greater than 100 µM and the TGI [6] was greater than 100 µM. For the same compound, the GI50 [7] was greater than 100 µM, the TGI [7] was greater than 100 µM and the GI50 [8] was greater than 100 µM. It also gave a TGI [8] greater than 100 µM, a GI50 [9] greater than 100 µM and a TGI [9] greater than 100 µM. It also gave a GI50 [10] greater than 100 µM, a TGI [10] greater than 100 µM and a GI50 [11] greater than 100 µM. The TGI [11] was greater than 100 µM, the GI50 [12] was greater than 100 µM and the TGI [12] was greater than 100 µM. The GI50 [13] was greater than 100 µM, the TGI [13] was greater than 100 µM and the GI50 [14] was greater than 100 µM. For the same compound, the TGI [14] was greater than 100 µM, the GI50 [15] was greater than 100 µM and the TGI [15] was greater than 100 µM. The GI50 [16] was greater than 100 µM, the TGI [16] was greater than 100 µM and the GI50 [17] was greater than 100 µM. For the same compound, the TGI [17] was greater than 100 µM, the GI50 [18] was greater than 100 µM and the TGI [18] was greater than 100 µM. It also gave a GI50 [19] greater than 100 µM, a TGI [19] greater than 100 µM and a GI50 [20] greater than 100 µM. It also gave a TGI [20] greater than 100 µM, a GI50 [21] greater than 100 µM and a TGI [21] greater than 100 µM. For the same compound, the GI50 [22] was 93.7 µM, the TGI [22] was greater than 100 µM and the GI50 [23] was greater than 100 µM. For the same compound, the TGI [23] was greater than 100 µM, the GI50 [24] was greater than 100 µM and the TGI [24] was greater than 100 µM. It also gave a GI50 [25] greater than 100 µM, a TGI [25] greater than 100 µM and a GI50 [26] greater than 100 µM. For the same compound, the TGI [26] was greater than 100 µM, the GI50 [27] was greater than 100 µM and the TGI [27] was greater than 100 µM. For the same compound, the GI50 [28] was greater than 100 µM, the TGI [28] was greater than 100 µM and the GI50 [29] was greater than 100 µM. It also gave a TGI [29] greater than 100 µM, a GI50 [30] greater than 100 µM and a TGI [30] greater than 100 µM. It also gave a GI50 [31] greater than 100 µM, a TGI [31] greater than 100 µM and a GI50 [32] greater than 100 µM. For the same compound, the TGI [32] was greater than 100 µM, the GI50 [33] was greater than 100 µM and the TGI [33] was greater than 100 µM. For the same compound, the GI50 [34] was greater than 100 µM, the TGI [34] was greater than 100 µM and the GI50 [35] was greater than 100 µM. For the same compound, the TGI [35] was greater than 100 µM, the GI50 [36] was greater than 100 µM and the TGI [36] was greater than 100 µM. It also gave a GI50 [37] greater than 100 µM, a TGI [37] greater than 100 µM and a GI50 [38] greater than 100 µM. For the same compound, the TGI [38] was greater than 100 µM, the GI50 [39] was greater than 100 µM and the TGI [39] was greater than 100 µM. It also gave a GI50 [40] greater than 100 µM, a TGI [40] greater than 100 µM and a GI50 [41] greater than 100 µM. For the same compound, the TGI [41] was greater than 100 µM, the GI50 [42] was greater than 100 µM and the TGI [42] was greater than 100 µM. It also gave a GI50 [43] greater than 100 µM, a TGI [43] greater than 100 µM and a GI50 [44] greater than 100 µM. The TGI [44] was greater than 100 µM, the GI50 [45] was greater than 100 µM and the TGI [45] was greater than 100 µM. For the same compound, the GI50 [46] was greater than 100 µM, the TGI [46] was greater than 100 µM and the GI50 [47] was greater than 100 µM. For the same compound, the TGI [47] was greater than 100 µM, the GI50 [48] was greater than 100 µM and the TGI [48] was greater than 100 µM. The GI50 [49] was greater than 100 µM, the TGI [49] was greater than 100 µM and the GI50 [50] was greater than 100 µM. It also gave a TGI [50] greater than 100 µM, a GI50 [51] greater than 100 µM and a TGI [51] greater than 100 µM. For the same compound, the GI50 [52] was greater than 100 µM, the TGI [52] was greater than 100 µM and the GI50 [53] was greater than 100 µM. The TGI [53] was greater than 100 µM, the GI50 [54] was greater than 100 µM and the TGI [54] was greater than 100 µM. The GI50 [55] was greater than 100 µM, the TGI [55] was greater than 100 µM and the GI50 [56] was 80 µM. The TGI [56] was greater than 100 µM, the GI50 [57] was greater than 100 µM and the TGI [57] was greater than 100 µM.
